Source: US20070117770A1, “Human ribosomal DNA (rDNA) and ribosomal RNA (rRNA) nucleic acids and uses thereof” (Cylene Pharmaceuticals, Inc., priority 2005, published 2007)

Tests used:
Experiment in all cases: Protein kinase inhibition assay
Type in all cases: biochemical
MAPKAP-K2(h) = MAPKAP-K2(h) (Homo sapiens, UniProt P49137); conditions: read-out: percent residual activity of MAPKAP-K2(h)
Description: (§1) Certain compounds were tested for activity in protein kinase inhibition assays. All substrates were dissolved and diluted to working stocks in de-ionized water, apart from histone H1 (10× working stock in 20 mM MOPS pH 7.0), PDKtide (10× working stock in 50 mM Tris pH 7.0) ATF2 (which is typically stored at a 20× working stock in 50 mM Tris pH 7.5, 150 mM NaCl, 0.1 mM EGTA, 0.03% Brij-35, 50% glycerol, 1 mM benzamidine, 0.2 mM PMSF and 0.1% R-mercaptoethanol), KKLNRTLSFAEPG (SEQ ID NO:203) and RRRLSFAEPG (SEQ ID NO:204) (50 mM HEPES pH 7.4) and GGEEEEYFELVKKKK (SEQ ID NO:205) (20 mM MOPS pH 7.0). All kinases were pre-diluted to a 10× working concentration prior to addition into the assay. The composition of the dilution buffer for each kinase is detailed below.
In a final reaction volume of 25 μl, MAPKAP-K2 (h) (5-10 mU) is incubated with 50 mM Na R-glycerophosphate pH 7.5, 0.1 mM EGTA, 30 μM KKLNRTLSVA (SEQ ID NO:212), 10 mM MgAcetate and [gamma-33P-ATP] (specific activity approx. 500 cpm/pmol, concentration as required). The reaction is initiated by the addition of the MgATP mix. After incubation for 40 minutes at room temperature, the reaction is stopped by the addition of 5 μl of a 3% phosphoric acid solution. […]

MKK7β(h) = biological target: T1, MKK7β(h) (Homo sapiens, UniProt O14733); conditions: for remaining activity at 2.5 µM: read-out: percent residual activity of MKK7β(h)
T1 sequence (O14733 1-419): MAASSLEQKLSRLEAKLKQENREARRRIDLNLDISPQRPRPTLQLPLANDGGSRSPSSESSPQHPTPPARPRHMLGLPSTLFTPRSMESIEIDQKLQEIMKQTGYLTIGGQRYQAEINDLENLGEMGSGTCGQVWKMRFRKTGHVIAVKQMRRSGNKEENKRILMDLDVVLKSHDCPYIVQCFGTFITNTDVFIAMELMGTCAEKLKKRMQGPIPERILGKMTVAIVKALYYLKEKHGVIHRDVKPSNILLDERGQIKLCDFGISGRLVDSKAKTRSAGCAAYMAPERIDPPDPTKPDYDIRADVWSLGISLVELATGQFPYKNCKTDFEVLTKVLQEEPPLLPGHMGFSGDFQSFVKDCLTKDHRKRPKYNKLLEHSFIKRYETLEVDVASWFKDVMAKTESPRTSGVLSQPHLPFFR
Description: as §1
The reaction is initiated by the addition of the MgATP. After incubation for 40 minutes at room temperature, 5 μl of this incubation mix is used to initiate a JNK1α1 (h) assay, which is exactly as described on page 11 of this book except that ATF2 is replaced with 250 μM peptide.

PKCζ(h) = PKCζ(h) (Homo sapiens, UniProt Q05513); conditions: read-out: percent residual activity of PKCζ(h)
PKCζ(h), sequence (Q05513 whole entry): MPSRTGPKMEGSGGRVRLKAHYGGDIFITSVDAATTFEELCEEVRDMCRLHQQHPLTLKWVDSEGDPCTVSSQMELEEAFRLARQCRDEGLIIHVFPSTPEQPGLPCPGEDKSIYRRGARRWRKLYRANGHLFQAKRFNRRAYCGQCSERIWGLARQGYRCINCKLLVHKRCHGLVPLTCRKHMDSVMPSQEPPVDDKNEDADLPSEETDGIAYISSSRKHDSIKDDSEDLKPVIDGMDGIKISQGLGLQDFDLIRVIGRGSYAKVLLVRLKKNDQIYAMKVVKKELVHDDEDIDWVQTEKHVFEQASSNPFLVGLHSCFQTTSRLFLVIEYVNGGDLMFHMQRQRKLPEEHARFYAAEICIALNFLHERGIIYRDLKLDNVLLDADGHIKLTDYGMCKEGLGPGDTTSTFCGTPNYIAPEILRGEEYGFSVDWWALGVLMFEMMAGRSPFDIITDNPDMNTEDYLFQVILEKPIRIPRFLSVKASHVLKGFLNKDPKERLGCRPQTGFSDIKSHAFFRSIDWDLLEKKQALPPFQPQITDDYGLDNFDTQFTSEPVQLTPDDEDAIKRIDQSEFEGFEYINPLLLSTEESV
Description: as §1
(§2) In a final reaction volume of 25 μl, PKCξ (h) (5-10 mU) is incubated with 8 mM MOPS pH 7.0, 0.2 mM EDTA, 50 μM ERMRPRKRQGSVRRRV (SEQ ID NO:224), 10 mM MgAcetate and [gamma-33P-ATP] (specific activity approx. 500 cpm/pmol, concentration as required). The reaction is initiated by the addition of the MgATP mix. After incubation for 40 minutes at room temperature, the reaction is stopped by the addition of 5 μl of a 3% phosphoric acid solution. 10 μl of the reaction is then spotted onto a P30 filtermat and washed three times for 5 minutes in 75 mM phosphoric acid and once in methanol prior to drying and scintillation counting.

EphA4(h) = EphA4(h) (Homo sapiens, UniProt P54764); conditions: read-out: percent residual activity of EphA4(h)
EphA4(h), sequence (P54764 20-986): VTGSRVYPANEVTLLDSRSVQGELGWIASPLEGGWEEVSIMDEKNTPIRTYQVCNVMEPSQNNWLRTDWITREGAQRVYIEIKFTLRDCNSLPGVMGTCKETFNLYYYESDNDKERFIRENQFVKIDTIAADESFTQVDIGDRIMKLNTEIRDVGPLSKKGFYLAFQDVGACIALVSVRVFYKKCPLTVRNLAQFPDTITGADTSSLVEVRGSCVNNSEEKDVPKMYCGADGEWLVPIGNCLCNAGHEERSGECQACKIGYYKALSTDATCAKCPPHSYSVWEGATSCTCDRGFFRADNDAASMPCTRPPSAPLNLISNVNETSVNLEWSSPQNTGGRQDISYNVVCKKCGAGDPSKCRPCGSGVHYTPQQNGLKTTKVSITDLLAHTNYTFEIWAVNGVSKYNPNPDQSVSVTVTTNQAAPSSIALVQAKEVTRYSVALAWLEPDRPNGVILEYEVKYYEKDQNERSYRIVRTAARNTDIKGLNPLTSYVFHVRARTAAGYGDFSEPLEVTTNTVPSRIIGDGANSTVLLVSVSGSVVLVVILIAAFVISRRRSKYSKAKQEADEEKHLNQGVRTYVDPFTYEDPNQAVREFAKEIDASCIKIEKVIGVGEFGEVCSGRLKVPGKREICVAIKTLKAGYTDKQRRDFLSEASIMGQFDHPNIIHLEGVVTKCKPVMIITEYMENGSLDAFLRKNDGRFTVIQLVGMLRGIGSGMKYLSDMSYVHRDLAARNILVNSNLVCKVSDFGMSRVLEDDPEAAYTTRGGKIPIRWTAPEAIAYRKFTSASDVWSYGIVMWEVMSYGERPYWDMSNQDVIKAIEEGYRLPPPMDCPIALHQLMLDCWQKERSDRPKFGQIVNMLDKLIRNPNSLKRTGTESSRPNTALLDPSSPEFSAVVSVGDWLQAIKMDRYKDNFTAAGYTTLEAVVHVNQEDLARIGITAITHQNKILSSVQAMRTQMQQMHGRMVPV
Description: as §1
as §2, with “EphA4” for “PKCξ”, “10 mM MnCl2, 0.1 mg/ml poly(Glu, Tyr) 4:1,” for “50 μM ERMRPRKRQGSVRRRV (SEQ ID NO:224),”, “[y-33P-ATP]” for “[gamma-33P-ATP]”, “Filtermat A” for “P30 filtermat”

NEK6(h) = NEK6(h) (Homo sapiens, UniProt Q9HC98); conditions: read-out: percent residual activity of NEK6(h)
NEK6(h), sequence (Q9HC98 whole entry): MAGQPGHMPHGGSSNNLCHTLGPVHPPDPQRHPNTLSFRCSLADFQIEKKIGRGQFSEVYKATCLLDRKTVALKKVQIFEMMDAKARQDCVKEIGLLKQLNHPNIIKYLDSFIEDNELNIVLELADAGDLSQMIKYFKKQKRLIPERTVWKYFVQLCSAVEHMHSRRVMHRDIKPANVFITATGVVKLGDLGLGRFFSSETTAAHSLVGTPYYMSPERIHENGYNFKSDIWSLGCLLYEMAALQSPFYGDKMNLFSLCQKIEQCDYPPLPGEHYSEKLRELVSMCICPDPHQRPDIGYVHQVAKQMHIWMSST
Description: as §1
as §2, with “μl, NEK6” for “μl, PKCξ”, “EDTA, 300” for “EDTA, 50”, “μM FLAKSFGSPNRAYKK” for “μM ERMRPRKRQGSVRRRV”, “ID NO:221),” for “ID NO:224),”

CDK6/cyclinD3(h) = CDK6/cyclinD3(h) (Homo sapiens, UniProt Q00534); conditions: read-out: percent residual activity of CDK6/cyclinD3(h)
CDK6/cyclinD3(h), sequence (Q00534 whole entry): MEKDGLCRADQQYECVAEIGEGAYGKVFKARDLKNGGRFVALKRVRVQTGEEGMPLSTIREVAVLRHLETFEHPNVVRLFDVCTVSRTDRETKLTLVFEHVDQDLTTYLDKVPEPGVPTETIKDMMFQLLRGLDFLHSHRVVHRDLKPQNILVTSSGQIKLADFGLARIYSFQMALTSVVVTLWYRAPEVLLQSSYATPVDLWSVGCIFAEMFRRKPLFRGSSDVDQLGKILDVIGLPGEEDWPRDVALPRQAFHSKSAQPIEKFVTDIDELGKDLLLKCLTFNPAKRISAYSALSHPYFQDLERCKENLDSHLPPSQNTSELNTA
CDK6/cyclinD3(h), sequence (P30281 whole entry partner): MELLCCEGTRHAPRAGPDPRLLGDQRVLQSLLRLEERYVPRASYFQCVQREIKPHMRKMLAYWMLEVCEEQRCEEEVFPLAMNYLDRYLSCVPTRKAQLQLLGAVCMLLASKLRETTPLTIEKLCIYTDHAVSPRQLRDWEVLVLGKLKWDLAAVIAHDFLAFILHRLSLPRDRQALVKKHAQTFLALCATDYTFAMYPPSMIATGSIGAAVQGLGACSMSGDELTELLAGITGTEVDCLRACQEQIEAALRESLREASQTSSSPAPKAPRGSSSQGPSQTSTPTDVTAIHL
Description: as §1
as §2, with “CDK6/cyclinD3” for “PKCξ”, “0.1 mg/ml histone H1,” for “50 μM ERMRPRKRQGSVRRRV (SEQ ID NO:224),”, “MGATP” for “MgATP”

MAPKAP-K2(h), sequence (P49137 whole entry): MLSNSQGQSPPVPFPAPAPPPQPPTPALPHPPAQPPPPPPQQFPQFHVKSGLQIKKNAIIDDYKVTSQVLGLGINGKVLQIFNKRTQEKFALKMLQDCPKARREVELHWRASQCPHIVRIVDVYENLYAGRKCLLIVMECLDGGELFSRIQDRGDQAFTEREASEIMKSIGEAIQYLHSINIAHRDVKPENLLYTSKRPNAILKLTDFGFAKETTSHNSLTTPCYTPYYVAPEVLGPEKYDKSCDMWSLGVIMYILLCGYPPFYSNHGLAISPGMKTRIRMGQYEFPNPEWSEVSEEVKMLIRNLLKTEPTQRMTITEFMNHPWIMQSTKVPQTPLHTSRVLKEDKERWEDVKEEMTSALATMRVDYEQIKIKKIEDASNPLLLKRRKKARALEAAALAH

remaining activity at 2.5 µM (MAPKAP-K2(h)) [%] | inhibition of MKK7B (MKK7β(h); 2.5 μM) | remaining activity at 2.5 µM (MKK7β(h)) [%] | remaining activity at 2.5 µM (PKCζ(h)) [%] | remaining activity at 2.5 µM (EphA4(h)) [%] | remaining activity at 2.5 µM (NEK6(h)) [%] | remaining activity at 2.5 µM (CDK6/cyclinD3(h)) [%] | SMILES
99 | inhibits MKK7B | 1 | 113 | 134 | 111 | 100 | CC(=O)N1CCN(c2ccc3c(=O)c(C(=O)NCCN4CCCC4)c4n(C)c5ccccc5n4c3n2)CC1 [Compound B-1]
79 |  | 111 | 56 | 107 | 78 | 85 | CN1CCCC1CCNC(=O)c1cn2c3c(c(N4CCC(c5cnccn5)C4)c(F)cc3c1=O)Oc1cc3ccccc3cc1-2 (stereo not shown) [Compound A-1]
